Measured values published in patent US8735443B2, “Method of treating diabetes-related vascular complications” (Kuwait University, priority 2008, dated 2014).

What was measured:
[1] = Cell viability after hydrogen peroxide (Cell Counting Kit-8), diabetic fibroblasts; assay type: cell-based, rat; conditions: female, Coto Kakizaki (diabetic), rat, primary dermal fibroblasts from diabetic rats (DFs), DFs, 16 hours, read-out: loss in cell viability
Description: To determine the effect of α-lipoic acid on isolated cells from normal and diabetic rats, primary rat fibroblasts were derived from dorsal skin biopsies performed on four diabetic Coto Kakizaki rats (DFs) and four age-matched (12-14 months) and sex-matched (female) Wistar control rats (CFs). After sterilization in povidine solution, the rat skin was washed in sterile water and rinsed in 70% ethanol in phosphate-buffered saline (PBS). The epidermis and dermis were separated following overnight incubation in 0.25% Trypsin/EDTA at 4° C. Samples were washed, diced and digested for thirty minutes at 37° C. in collagenase type I (250 U/ml) dissolved in Dulbecco's modified Eagle medium (DMEM; Invitrogen) containing penicillin (100 U/ml), 2 mM L-glutamine and 26 mM HEPES. After collagenase treatment, the cells were dislodged, centrifuged and resuspended in medium supplemented with 10% fetal bovine serum. The cells were grown under standard conditions, and the medium was changed every three to four days. Control and diabetic fibroblasts were grown under normo-glycemic conditions (5.5 mM glucose) and used in experiments at passage 3 to 5.
Fibroblasts were seeded at 1×10^4 cells/well on a 96-well plate. After a 24 hour incubation period, the cells were exposed to various concentrations of HP in serum-free medium at 37° C. for 2 hours [lactate dehydrogenase (LDH), a marker for necrotic cell death], or for 16 hours (cell viability). Quantification of cell viability was assessed using a Cell Counting Kit-8 (Dojindo, Kumamoto, Japan). The values obtained were normalized to the vehicle-treated cells. To measure the rate of necrotic cell death, an LDH release assay was performed using a CytoTox-ONE Homogeneous Membrane Integrity Assay kit (Promega). Expression of Nrf2 was inhibited by small-interfering RNA (siRNA) oligonucleotides. The sequences were designed and synthesized by Qiagen. The best silencing efficiency was obtained by incubating 2.0×10^5 cells/well in a 6-well plate with complexes formed by 5 nM siRNA (1 μl) and 9 μL of HiPerfect transfection reagent (Qiagen) dissolved in 90 μl medium, according to the manufacturer's instructions. The transfection was achieved by adding 0.9 ml of medium to the seeded cells followed by 100 μl of siRNA/HiPerfect complex. Knock-out efficiency was verified by real-time PCR and Western blot. Twenty-four hours later, 1 ml of fresh medium was added; 48 hr after transfection the cells were exposed to either vehicle or lipoic acid at a concentration of 500 μM.

rat aortic rings = assay: Acetylcholine-induced endothelium dependent relaxation of aortic rings in organ chamber; assay type: in vivo; conditions: diabetic arteries; apocynin 3×10^−4 mol/l, Tiron 10 mmol/l
Experimental: In the experiments, with regard to the determination of endothelium dependent relaxation (EDR) in the aorta, EDR in response to various concentrations of acetylcholine (Ach) (10^−9 to 10^−6 mol/l) was assessed in norepinephrine (10^−7 mol/l) preconstructed rat aortic rings using an organ chamber bath. The effects of the NAD(P)H oxidase inhibitor apocynin (3×10^−4 mol/l) and the O2^− scavenger Tiron (10 mmol/l) on Ach-induced responses of diabetic arteries were also considered.

aortic tissue = assay: Aortic superoxide production, lucigenin-enhanced chemiluminescence; assay type: in vivo, rat; conditions: inhibitor added 60 min before; diphenylene iodonium 0.1 mM, apocynin 3 mM
Experimental: In the study, with regard to measurement of vascular superoxide anion formation, O2^− concentration in aortic tissue was determined using a lucigenin-enhanced chemiluminescence method, and the resulting data were further confirmed by a cytochrome c-based technique. Segments of the thoracic aorta were placed into 2 ml Krebs-Henseleit buffer (KHB, pH 7.4), and prewarmed to 37° C. for one hour. Immediately before measurement, rings were transferred to scintillation vials containing KHB with 5 μmol/L lucigenin and the O2^− generated chemiluminescence was recorded for five minutes with a scintillation counter. The amount of O2^− produced was quantified using a standard curve of O2^− generation by xanthine/xanthine oxidase and the data are expressed as nmol per min, per mg, of wet weight. In some experiments, vessels were denuded of endothelium by gentle rubbing of the luminal surface, whereas in others, N^ω-nitro-L-arginine methyl ester (L-NAME) 0.1 mM, diphenylene iodonium 0.1 mM, or apocynin 3 mM were added 60 min before determining O2^− generation.

NAD(P)H oxidase = NAD(P)H oxidase activity in aortic homogenates (lucigenin photoemission); assay type: biochemical, rat; conditions: inhibitor added to tissue homogenate
Experimental: Determination of NAD(P)H oxidase activity in the aorta was determined based on superoxide induced lucigenin photoemission. Enzyme assays were carried out in a final volume of 1 ml. containing (in mM) 50 phosphate buffer; pH 7.0, 1 EGTA, 150 sucrose, 0.5 lucigenin, 0.1 NAD(P)H and tissue homogenate. Enzyme reactions were initiated with the addition of lucigenin. Photoemission, expressed in terms of relative light units (RLU), was measured every 5 min. using a luminometer. All assays were carried out in the dark at room temperature.

cultured arteries = assay: Cultured arteries of non-diabetic control animals exposed to TNF-α; design: species or system rat; conditions: arteries of non-diabetic control animals exposed to TNF-α

Q: Which results are given for OO [HP, hydrogen peroxide]?
A: cytotoxicity at 16 h, 37.5 uM ([1]; 37.5 uM HP): 17%; cytotoxicity at 16 h, 50 uM ([1]; 50 uM HP): 55%; cytotoxicity at 16 h, 75 uM ([1]; 75 uM HP): 78%

Q: What does the source list for COc1cc(C(C)=O)ccc1O [apocynin]?
A: Ach-induced relaxation in diabetic arteries (rat aortic rings): improved; O2− production of aorta of GK diabetic rats (aortic tissue): inhibited

Q: With c1ccc2c(c1)[I+]c1ccccc1-2 [diphenyleneiodonium] as the molecule, how does the “O2− production of aorta of GK diabetic rats” value (aortic tissue) read?
A: inhibited

Q: What about the “reduction of production of O2− in the homogenate” value (NAD(P)H oxidase) of the same molecule?
A: > 95%

Q: For O=S(=O)(O)c1cc(O)c(O)c(S(=O)(=O)O)c1 [tiron, Tiron], which “Ach-induced relaxation in diabetic arteries” value (rat aortic rings) is on record?
A: improved

Q: For TNF-α, which Ach-induced vasorelaxation (cultured arteries) is on record?
A: impaired

Q: And the “caspase 3/7 activity” value (cultured arteries)?
A: elevated

Q: What about the “levels of DNA fragmentation” value (cultured arteries) of the same molecule?
A: elevated

Q: And the “rate of O2− generation” value (cultured arteries)?
A: elevated
